Key:
[1] = tested on: i.p. implanted L1210 leukemia; test: Comparison of conjugates and ara-C plus steroid combinations, i.p. implanted L1210 leukemic mice; format: in vivo
Procedure: Each mouse received 1×10^6 cells intraperitoneally. Doses were administered i.p. once daily to groups of 8 mice (avg. wt. 20 g) for 5 consecutive days beginning 24 hours after tumor implantation. In case of the combination, ara-C and the steroid were given at the same molar concentrations present in the conjugates. Mean survival days were calculated by the equation appearing in the NCI protocol; T/C ratios are reported in percent, i.e (treated/control)×100.

[2] = tested on: phosphodiesterase I from Crotalus adamenteus; test: Enzymatic cleavage of the phosphodiester bond by phosphodiesterase I; format: in vitro ADME; conditions: pH 8.8, 24 h, 37° C.; for hydrolysis by phosphodiesterase I: 5 μmol conjugate, 1.5 mg enzyme
Procedure: Enzymatic cleavage of the phosphodiester bond of the conjugates was studied by incubating the conjugates (5 μmol) with various enzymes (1.5-3 mg) in appropriate buffer and with plasma (final volume 0.5 ml). An aliquot (200 μl) of the 24 h incubation mixtures was streaked on Whatman 3 MM paper (23×57 cm) with the authentic markers and the paper was developed in Solvent A. The bands were characterized and analyzed semi-quantitatively by UV estimation of the chromatographs. […] The conjugates also remained 60-85 percent intact during the incubation with baboon plasma at 37° C. for 24 h. From the results of these tests, conjugates of this type appear capable of serving as sustained release froms of the parent steroid and nucleoside components thereof.
The conjugate (5 μmol) was incubated with 1 M Tris-HCl, pH 8.8 (0.05 ml) and purified phosphodiesterase I from Crotalus adamenteus (1.5 mg., Sigma Chemical Co.) in 0.45 ml. of H2 O for 24 h at 37° C.

SMILES | Survival Days Mean (Treated) ([1]; 75.0 μmole/kg/day × 5) | Weight change on Day 8 (g/mouse) ([1]; 75.0 μmole/kg/day × 5 (each, for combinations)) | T/C ([1]; 114.7 μmol/kg/day) | response vs control in vivo at 75 µmol/kg ([1]; Mus musculus, L1210, ip, 75.0 μmole/kg/day × 5, read-out: % T/C) | hydrolysis by phosphodiesterase I [2] | product ara-C [2] | product ara-CMP [2] | product prednisolone or prednisone [2] | Survival Days Mean (Treated) ([1]; 75.4 μmole/kg/day × 5) | Weight change on Day 8 (g/mouse) ([1]; 75.4 μmole/kg/day × 5) | response vs control in vivo at 75.4 µmol/kg ([1]; Mus musculus, L1210, ip, 75.4 μmole/kg/day × 5, read-out: % T/C)
C[C@]12C=CC(=O)C=C1CC[C@@H]1[C@@H]2[C@@H](O)C[C@@]2(C)[C@H]1CC[C@]2(O)C(=O)CO[P+]([O-])(O)OC[C@H]1O[C@@H](n2ccc(N)nc2=O)[C@@H](O)[C@@H]1O (stereo partly drawn) [Pred-p-ara-C (I), 5'-(Prednisolone-21-phosphoryl)-1-β-D-arabinofuranosylcytosine] | 19.13 days | -0.28 g/mouse | 178% | 201% | hydrolyzed completely | 10% | 40% | 50% |  |  | 
C[C@]12C=CC(=O)C=C1CC[C@@H]1[C@@H]2C(=O)C[C@@]2(C)[C@H]1CC[C@]2(O)C(=O)CO[P+]([O-])(O)OC[C@H]1O[C@@H](n2ccc(N)nc2=O)[C@@H](O)[C@@H]1O (stereo partly drawn) [Prednisone-p-ara-C (II), 5'-(Prednisone-21-phosphoryl)-1-β-D-arabinofuranosylcytosine] |  |  |  |  | hydrolyzed completely | 10% | 40% | 50% | 18.13 days | -0.30 g/mouse | 210%
